The target in one assay is T1, Glucocorticoid receptor (Homo sapiens, UniProt P04150).
T1 sequence (P04150 whole entry): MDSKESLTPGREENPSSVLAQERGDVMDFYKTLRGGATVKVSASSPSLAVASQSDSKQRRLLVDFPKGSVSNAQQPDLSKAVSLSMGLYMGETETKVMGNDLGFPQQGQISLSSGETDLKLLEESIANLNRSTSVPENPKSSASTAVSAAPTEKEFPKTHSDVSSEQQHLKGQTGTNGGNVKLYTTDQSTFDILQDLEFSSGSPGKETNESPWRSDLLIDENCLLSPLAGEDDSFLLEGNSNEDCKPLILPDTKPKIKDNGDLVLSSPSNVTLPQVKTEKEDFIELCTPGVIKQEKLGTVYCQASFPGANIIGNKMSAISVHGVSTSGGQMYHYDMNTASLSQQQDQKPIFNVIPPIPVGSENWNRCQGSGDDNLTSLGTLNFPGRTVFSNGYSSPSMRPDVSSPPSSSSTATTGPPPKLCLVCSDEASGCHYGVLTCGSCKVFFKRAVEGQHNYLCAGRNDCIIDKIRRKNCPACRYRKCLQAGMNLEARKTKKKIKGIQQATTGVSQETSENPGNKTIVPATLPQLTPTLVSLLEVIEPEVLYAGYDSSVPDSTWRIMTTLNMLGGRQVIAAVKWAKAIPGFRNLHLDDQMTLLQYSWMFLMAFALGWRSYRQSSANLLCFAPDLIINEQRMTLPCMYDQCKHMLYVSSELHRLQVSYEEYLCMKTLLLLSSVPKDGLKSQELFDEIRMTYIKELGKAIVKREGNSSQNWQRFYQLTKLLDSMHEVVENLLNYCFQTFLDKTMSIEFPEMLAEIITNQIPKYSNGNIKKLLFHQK
The assay can be described thus: Displacement of 10 nM [3H]dexamethasone from human Glucocorticoid receptor.

Another assay addresses Estrogen receptor beta (Homo sapiens, UniProt Q92731). The assay can be described thus: Displacement of radioligand from human Estrogen receptor beta, percent inhibition at 10 uM.
A further assay concerns the target T2, Androgen receptor (Homo sapiens, UniProt P10275).
T2 sequence (P10275 whole entry): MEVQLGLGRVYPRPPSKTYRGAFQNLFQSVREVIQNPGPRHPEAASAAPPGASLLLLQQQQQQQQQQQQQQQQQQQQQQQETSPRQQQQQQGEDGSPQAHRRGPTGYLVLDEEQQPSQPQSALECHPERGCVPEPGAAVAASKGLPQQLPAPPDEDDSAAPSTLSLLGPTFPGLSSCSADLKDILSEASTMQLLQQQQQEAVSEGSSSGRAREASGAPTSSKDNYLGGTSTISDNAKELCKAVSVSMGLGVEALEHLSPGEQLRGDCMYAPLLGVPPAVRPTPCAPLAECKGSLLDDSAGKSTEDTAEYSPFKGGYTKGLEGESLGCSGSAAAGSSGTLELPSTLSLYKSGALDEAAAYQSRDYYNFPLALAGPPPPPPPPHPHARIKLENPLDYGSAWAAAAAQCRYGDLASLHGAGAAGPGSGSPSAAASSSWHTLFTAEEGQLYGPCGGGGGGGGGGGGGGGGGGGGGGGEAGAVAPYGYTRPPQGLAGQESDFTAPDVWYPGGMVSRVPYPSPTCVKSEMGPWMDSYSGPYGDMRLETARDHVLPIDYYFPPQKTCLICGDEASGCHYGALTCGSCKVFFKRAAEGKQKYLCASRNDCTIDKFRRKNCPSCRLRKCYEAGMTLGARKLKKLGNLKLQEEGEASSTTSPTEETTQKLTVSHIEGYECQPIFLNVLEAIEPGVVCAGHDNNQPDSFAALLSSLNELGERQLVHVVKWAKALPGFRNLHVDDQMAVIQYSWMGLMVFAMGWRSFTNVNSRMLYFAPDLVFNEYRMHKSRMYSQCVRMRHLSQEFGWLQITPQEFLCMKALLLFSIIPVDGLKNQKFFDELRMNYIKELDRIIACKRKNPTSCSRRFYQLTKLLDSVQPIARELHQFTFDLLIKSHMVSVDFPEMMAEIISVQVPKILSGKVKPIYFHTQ
The assay can be described thus: Displacement of [3H]DHT from human Androgen receptor.

The next assay deals with T3, Progesterone receptor (Homo sapiens, UniProt P06401).
T3 sequence (P06401 whole entry): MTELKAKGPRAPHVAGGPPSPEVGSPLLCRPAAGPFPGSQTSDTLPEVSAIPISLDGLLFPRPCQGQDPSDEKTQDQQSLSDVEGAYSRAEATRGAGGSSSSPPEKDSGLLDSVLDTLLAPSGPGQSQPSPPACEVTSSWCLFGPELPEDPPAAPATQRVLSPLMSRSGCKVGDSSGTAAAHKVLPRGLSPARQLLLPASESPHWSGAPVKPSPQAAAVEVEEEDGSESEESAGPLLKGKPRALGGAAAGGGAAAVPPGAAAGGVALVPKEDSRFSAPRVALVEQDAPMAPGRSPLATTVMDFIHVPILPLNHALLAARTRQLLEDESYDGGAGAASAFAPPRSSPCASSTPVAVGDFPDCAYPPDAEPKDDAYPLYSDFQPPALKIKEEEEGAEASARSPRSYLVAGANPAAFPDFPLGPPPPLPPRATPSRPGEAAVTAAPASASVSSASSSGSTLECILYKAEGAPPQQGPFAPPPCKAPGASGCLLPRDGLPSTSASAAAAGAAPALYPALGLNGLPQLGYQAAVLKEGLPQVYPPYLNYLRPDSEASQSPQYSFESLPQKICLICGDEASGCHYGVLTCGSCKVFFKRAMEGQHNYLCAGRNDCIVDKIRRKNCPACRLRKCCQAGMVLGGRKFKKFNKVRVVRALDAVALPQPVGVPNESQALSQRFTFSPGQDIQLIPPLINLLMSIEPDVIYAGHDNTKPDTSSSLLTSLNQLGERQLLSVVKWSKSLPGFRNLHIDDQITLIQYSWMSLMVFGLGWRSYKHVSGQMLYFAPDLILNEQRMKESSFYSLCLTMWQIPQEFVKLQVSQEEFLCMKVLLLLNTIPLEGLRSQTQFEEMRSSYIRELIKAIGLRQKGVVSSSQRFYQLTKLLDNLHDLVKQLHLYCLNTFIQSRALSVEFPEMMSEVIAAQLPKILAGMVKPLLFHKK
The assay can be described thus: Displacement of radioligand from human Progesterone receptor.

SMILES strings stand for the structures.

For four compounds, Ki and inhibition results are on record in ChEMBL document CHEMBL1135457 (J Med Chem, 2002).

Estrogen receptor beta, sequence (Q92731 whole entry): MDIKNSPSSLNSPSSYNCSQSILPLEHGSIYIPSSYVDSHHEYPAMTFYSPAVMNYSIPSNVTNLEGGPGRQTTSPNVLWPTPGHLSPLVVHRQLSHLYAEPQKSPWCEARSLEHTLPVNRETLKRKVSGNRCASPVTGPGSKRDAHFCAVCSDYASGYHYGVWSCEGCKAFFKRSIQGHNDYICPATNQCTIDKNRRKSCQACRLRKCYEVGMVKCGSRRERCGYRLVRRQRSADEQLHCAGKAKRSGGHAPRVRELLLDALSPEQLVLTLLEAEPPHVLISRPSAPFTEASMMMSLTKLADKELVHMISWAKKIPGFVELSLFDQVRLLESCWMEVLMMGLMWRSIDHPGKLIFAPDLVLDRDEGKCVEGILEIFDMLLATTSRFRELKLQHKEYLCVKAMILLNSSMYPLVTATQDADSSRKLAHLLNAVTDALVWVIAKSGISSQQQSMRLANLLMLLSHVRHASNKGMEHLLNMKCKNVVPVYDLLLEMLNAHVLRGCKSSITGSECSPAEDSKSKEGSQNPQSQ

As for `O=C1CC[C@@]2(Cc3ccccc3)c3ccc(O)cc3CC[C@@H]2C1`, the values for the Ki at Glucocorticoid receptor, at Androgen receptor and on Progesterone receptor were 5.96 nM, 1300 nM and > 10000 nM, respectively. The compound further yielded an inhibition at Estrogen receptor beta of 54%.
For the compound `CC#C[C@]1(O)CCC2C3CCC4=CC(=O)CC[C@]4(Cc4ccc(C)cc4)C3=CC[C@@]21C` (stereo partly drawn), the Ki was determined as 0.1 nM at Glucocorticoid receptor and 90 nM at Androgen receptor.
In the case of `Oc1ccc2c(c1)CC[C@@H]1C[C@@](O)(C#CCl)CC[C@@]21Cc1ccccc1`, the inhibitory constant (Ki) on Glucocorticoid receptor was 0.1 nM; on Androgen receptor, 130 nM; on Progesterone receptor it was > 10000 nM. At Estrogen receptor beta, this compound gave an inhibition of 75%.
`CC#C[C@@]1(O)CC[C@@]2(Cc3ccccc3)c3ccc(O)cc3CC[C@@H]2C1`: the figures for the inhibitory constant (Ki) at Glucocorticoid receptor and at Progesterone receptor were 0.17 nM and > 10000 nM, respectively. The compound further came in with an inhibition on Estrogen receptor beta of 57%.
